Assay results published in the supplement of paper PMC10307832.

Experiments:
Test in all cases: relative viability (nuclei count vs DMSO), 5 days (fraction); higher = more cells survive
NVP-TAE684 + Foretinib = compound: COc1cc(N2CCC(N3CCN(C)CC3)CC2)ccc1Nc1ncc(Cl)c(Nc2ccccc2S(=O)(=O)C(C)C)n1 [NVP-TAE684] + COc1cc2c(Oc3ccc(NC(=O)C4(C(=O)Nc5ccc(F)cc5)CC4)cc3F)ccnc2cc1OCCCN1CCOCC1 [Foretinib] (partner 0.25 µM)
Summary of the method: (§1)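 The day after seeding in 1536-well plates, lung cancer cell lines were treated by pin tool with a single drug, or with a fixed anchor-drug dose together with five library-drug doses (not always all listed) in √10 steps. After 5 days, a combined fix-and-stain solution (final 0.05% Triton X-100, 1% formaldehyde, 1 ug/ml Hoechst) was added. Nuclei counted on 4× images gave relative viability as treated counts over vehicle counts, reported as the median of duplicate plates.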

CUDC-101 + Trametinib = compound: C#Cc1cccc(Nc2ncnc3cc(OC)c(OCCCCCCC(=O)NO)cc23)c1 [CUDC-101] + CC(=O)Nc1cccc(-n2c(=O)n(C3CC3)c(=O)c3c(Nc4ccc(I)cc4F)n(C)c(=O)c(C)c32)c1 [Trametinib] (partner 0.02 µM)
Summary of the method: as §1

Vandetanib + Crizotinib = compound: COc1cc2/c(=N/c3ccc(Br)cc3F)nc[nH]c2cc1OCC1CCN(C)CC1 [Vandetanib] + C[C@@H](Oc1cc(-c2cnn(C3CCNCC3)c2)cnc1N)c1c(Cl)ccc(F)c1Cl [Crizotinib] (partner 1 µM)
Summary of the method: as §1

NVP-TAE684 + Trametinib = compound: COc1cc(N2CCC(N3CCN(C)CC3)CC2)ccc1Nc1ncc(Cl)c(Nc2ccccc2S(=O)(=O)C(C)C)n1 [NVP-TAE684] + CC(=O)Nc1cccc(-n2c(=O)n(C3CC3)c(=O)c3c(Nc4ccc(I)cc4F)n(C)c(=O)c(C)c32)c1 [Trametinib] (partner 0.02 µM)
Summary of the method: as §1

NVP-TAE684 + Palbociclib = compound: COc1cc(N2CCC(N3CCN(C)CC3)CC2)ccc1Nc1ncc(Cl)c(Nc2ccccc2S(=O)(=O)C(C)C)n1 [NVP-TAE684] + CC(=O)c1c(C)c2cnc(Nc3ccc(N4CCNCC4)cn3)nc2n(C2CCCC2)c1=O [Palbociclib] (partner 0.5 µM)
Summary of the method: as §1

| Cell Line | relative viability (NVP-TAE684 + Foretinib; first compound 0.2 µM) | relative viability (NVP-TAE684 + Foretinib; first compound 0.6325 µM) | relative viability (NVP-TAE684 + Foretinib; first compound 2 µM) | relative viability (CUDC-101 + Trametinib; first compound 0.01 µM) | relative viability (CUDC-101 + Trametinib; first compound 0.03162 µM) | relative viability (CUDC-101 + Trametinib; first compound 0.1 µM) | relative viability (CUDC-101 + Trametinib; first compound 0.3162 µM) | relative viability (CUDC-101 + Trametinib; first compound 1 µM) | relative viability (Vandetanib + Crizotinib; first compound 0.02 µM) | relative viability (Vandetanib + Crizotinib; first compound 0.06325 µM) | relative viability (Vandetanib + Crizotinib; first compound 0.2 µM) | relative viability (Vandetanib + Crizotinib; first compound 0.6325 µM) | relative viability (Vandetanib + Crizotinib; first compound 2 µM) | relative viability (NVP-TAE684 + Trametinib; first compound 0.2 µM) | relative viability (NVP-TAE684 + Trametinib; first compound 0.6325 µM) | relative viability (NVP-TAE684 + Trametinib; first compound 2 µM) | relative viability (NVP-TAE684 + Palbociclib; first compound 0.2 µM) | relative viability (NVP-TAE684 + Palbociclib; first compound 0.6325 µM) | relative viability (NVP-TAE684 + Palbociclib; first compound 2 µM) |
| --- | --- | --- | --- | --- | --- | --- | --- | --- | --- | --- | --- | --- | --- | --- | --- | --- | --- | --- | --- |
| NCI-H2126 | 1.13 | 1.22 | 0.84 | 0.552 | 0.545 | 0.56 | 0.522 | 0.415 | 0.983 | 0.964 | 0.99 | 0.97 | 0.959 | 0.628 | 0.637 | 0.388 | 0.34 | 0.329 | 0.327 |
| NCI-H2170 | 1.1 | 0.997 | 0.999 | 0.951 | 0.967 | 0.883 | 0.939 | 0.843 | 1.22 | 1.26 | 1.11 | 1.18 | 1.1 | 0.861 | 0.947 | 0.916 | 0.33 | 0.382 | 0.375 |
| NCI-H2228 | 0.445 | 0.238 | 0.123 | 0.553 | 0.467 | 0.486 | 0.912 | 0.537 | 0.446 | 0.473 | – | 0.484 | 0.479 | 0.312 | 0.249 | 0.23 | 0.44 | 0.253 | 0.279 |
| NCI-H2347 | – | 1.15 | 0.521 | 0.285 | 0.264 | 0.278 | 0.294 | 0.259 | 0.665 | 0.56 | 0.737 | 0.789 | 0.718 | 0.275 | 0.264 | 0.355 | 0.449 | 0.453 | 0.359 |
| NCI-H2405 | 1 | 0.966 | 0.575 | 0.682 | 0.558 | 0.658 | 0.779 | 0.551 | 0.876 | 0.664 | 0.875 | 0.88 | 0.795 | 0.578 | 0.556 | 0.336 | 0.524 | 0.525 | 0.337 |
| NCI-H3122 | 0.218 | 0.274 | 0.101 | 0.201 | 0.224 | 0.198 | 0.243 | 0.228 | 0.291 | 0.257 | 0.266 | 0.261 | 0.249 | 0.12 | 0.148 | 0.0944 | 0.103 | 0.0833 | 0.0801 |
| PC-3 [JPC-3] | 1.2 | 0.99 | 0.793 | 0.608 | 0.519 | 0.494 | 0.455 | 0.323 | 0.96 | 0.943 | 0.935 | 0.811 | 0.52 | 0.721 | 0.572 | 0.58 | 0.53 | 0.521 | 0.422 |
| PC-14 | 0.689 | 1.12 | 1.03 | 0.928 | 0.605 | 0.619 | 0.233 | 0.0423 | 0.94 | 0.853 | 0.897 | 0.386 | 0.231 | 0.677 | 0.62 | 0.0712 | 0.434 | 0.398 | 0.0888 |
| RERF-LC-KJ | 0.853 | 0.931 | 0.771 | 0.908 | 0.955 | 0.865 | 0.775 | 0.672 | 0.83 | 0.789 | 0.871 | 0.883 | 0.794 | 0.861 | 0.772 | 0.664 | 1.14 | 1.11 | 0.907 |
| SK-LU-1 | 0.947 | 0.766 | 0.469 | 0.475 | 0.439 | 0.551 | 0.663 | 0.456 | 1.06 | 0.667 | 0.862 | 0.909 | 0.732 | 0.42 | 0.445 | 0.383 | 0.352 | 0.388 | 0.333 |
| SK-MES-1 | 0.597 | 1.12 | 0.774 | 0.488 | 0.488 | 0.493 | 0.431 | 0.319 | 1.01 | 0.902 | 0.938 | 0.926 | 0.875 | 0.578 | 0.492 | 0.378 | 0.347 | 0.313 | 0.296 |
| SW 1573 | 0.916 | 0.951 | 0.599 | 0.638 | 0.5 | 0.599 | 0.592 | 0.392 | 0.896 | 0.704 | 0.7 | 0.815 | 0.849 | 0.651 | 0.495 | 0.21 | 0.414 | 0.294 | 0.169 |
